In ChEMBL document CHEMBL6114982, “Structural optimization and characterization of highly potent and selective STAT3 inhibitors for the treatment of triple negative breast cancer” (Eur J Med Chem, 2025):
Active and inactive are the calls of the source. The calls are words filed in the database; no cut-off is given here.

Key:
[1] = molecular target: T1, Signal transducer and activator of transcription 3 (Homo sapiens, UniProt P40763); test: Inhibition of STAT3 phosphorylation at Tyr705 residue in human BT-549 cells at 0.1 uM by Western blot analysis; assay type: cell-based; details: time 8-48 hrs
[2] = molecular target: T1, Signal transducer and activator of transcription 3; test: Inhibition of STAT3 phosphorylation at Tyr705 residue at Tyr705 residue in human MDA-MB-231 cells measured after 8 to 48 hrs by Western blot analysis; assay type: cell-based; details: dose 0.1 µM, time 8-48 hrs
[3] = molecular target: T1, Signal transducer and activator of transcription 3; test: Inhibition of STAT3 phosphorylation at Tyr705 residue in human BT-549 cells measured after 8 to 48 hrs by Western blot analysis; assay type: cell-based; details: dose 0.1 µM, time 8-48 hrs
MDA-MB-231 [4] = test: Downregulation of cyclin D1 level in human MDA-MB-231 cells measured after 48 hrs by Western blot analysis; assay type: functional, cell-based; details: dose 0.05-0.5 µM
MDA-MB-231 [5] = test: Downregulation of Bcl-2 level in human MDA-MB-231 cells measured after 48 hrs by Western blot analysis; assay type: functional, cell-based; details: dose 0.05-0.5 µM
MDA-MB-231 [6] = test: Downregulation of Bcl-xl level in human MDA-MB-231 cells measured after 48 hrs by Western blot analysis; assay type: functional, cell-based; details: dose 0.05-0.5 µM
BT-549 [7] = test: Downregulation of cyclin D1 level in human BT-549 cells measured after 48 hrs by Western blot analysis; assay type: functional, cell-based; details: dose 0.05-0.5 µM
BT-549 [8] = test: Downregulation of Bcl-2 level in human BT-549 cells measured after 48 hrs by Western blot analysis; assay type: functional, cell-based; details: dose 0.05-0.5 µM
BT-549 [9] = test: Downregulation of Bcl-xl level in human BT-549 cells measured after 48 hrs by Western blot analysis; assay type: functional, cell-based; details: dose 0.05-0.5 µM
BT-549 [10] = test: Downregulation of CD44 expression in human BT-549 cells by Western blot analysis; assay type: functional, cell-based
[11] = molecular target: Tyrosine-protein kinase JAK1 (Homo sapiens) (UniProt P23458); test: Inhibition of JAK1 (unknown origin) at upto 10 uM
[12] = molecular target: Epidermal growth factor receptor (Homo sapiens) (UniProt P00533); test: Inhibition of EGFR (unknown origin) at upto 10 uM
MDA-MB-231 [13] = test: Effect on JAK1 phosphorylation level in human MDA-MB-231 cells at 0.05 to 0.5 uM measured after 48 hrs by Western blot analysis; assay type: functional, cell-based; details: dose 0.05-0.5 µM
MDA-MB-231 [14] = test: Effect on Akt phosphorylation level in human MDA-MB-231 cells at 0.05 to 0.5 uM measured after 48 hrs by Western blot analysis; assay type: functional, cell-based; details: dose 0.05-0.5 µM
BT-549 [15] = test: Effect on JAK1 phosphorylation level in human BT-549 cells at 0.05 to 0.5 uM measured after 48 hrs by Western blot analysis; assay type: functional, cell-based; details: dose 0.05-0.5 µM
BT-549 [16] = test: Inhibition of colony formation in human BT-549 cells measured after 14 days by crystal violet staining based analysis; assay type: functional, cell-based; details: dose 0.1-0.5 µM, time 14.0 day
MDA-MB-231 [17] = test: Inhibition colony formation in human MDA-MB-231 cells harbouring STAT3 siRNA at 0.1 uM after 14 days by crystal violet staining based analysis; assay type: functional, cell-based; details: time 14.0 day
BT-549 [18] = test: Inhibition colony formation in human BT-549 cells harbouring STAT3 siRNA at 0.1 uM after 14 days by crystal violet staining based analysis; assay type: functional, cell-based; details: time 14.0 day
BT-549 [19] = test: Inhibition of cell migration in human BT-549 cells assessed as reduction in wound closure proportion at 0.05 to 0.5 uM incubated for 24 hrs by inverted microscopic analysis; assay type: functional, cell-based; details: dose 0.05-0.5 µM
BT-549 [20] = test: Inhibition of cell invasion in human BT-549 cells assessed as decrease in number of invaded cells incubated for 24 hrs by crystal violet staining based inverted microscopic analysis; assay type: functional; details: dose 0.05-0.5 µM
MDA-MB-231 [21] = test: Downregulation of MMP2 expression level in human MDA-MB-231 cells by Western blot analysis; assay type: functional, cell-based
MDA-MB-231 [22] = test: Induction of apoptosis in human MDA-MB-231 cells assessed as late apoptotic at 0.5 uM incubated for 48 hrs by Annexin V and PI staining based flow cytometry analysis (reference value: 2.71%); assay type: functional
MDA-MB-231 [23] = test: Antitumor activity against human MDA-MB-231 cells xenografted in female nude BALB/c mouse model assessed as reduction in tumor volume at 20 mg/kg, ip administered every other day for 30 days (reference value: 1522.98 millimeter); assay type: functional; details: time 30 day
MDA-MB-231 [24] = test: Antitumor activity against human MDA-MB-231 cells xenografted in female nude BALB/c mouse model assessed as tumor growth inhibition at 10 mg/kg, ip administered every other day for 30 days relative to control; assay type: functional; details: MDA-MB-231, 720 h, time 30 day, read-out: TGI
[25] = MRT in female BALB/c nude mouse administered as iv dose; assay type: ADME, organism-based; details: in vivo
[26] = Toxicity in female BALB/c nude mouse assessed as effect on spleen at 10 to 20 mg/kg, iv measured after 30 days by H and E staining based analysis; assay type: organism-based; details: in vivo, 720 h, dose 10-20 mg/kg, time 30 day
[27] = Toxicity in female BALB/c nude mouse assessed as effect on lung at 10 to 20 mg/kg, iv measured after 30 days by H and E staining based analysis; assay type: organism-based; details: in vivo, 720 h, dose 10-20 mg/kg, time 30 day
[28] = Toxicity in female BALB/c nude mouse assessed as drug tolerance at 10 to 20 mg/kg, iv measured after 30 days; assay type: organism-based; details: in vivo, 720 h, dose 10-20 mg/kg, time 30 day
[29] = molecular target: T1, Signal transducer and activator of transcription 3; test: Inhibition of STAT3 phosphorylation in human MDA-MB-231 cells assessed as upregulation of UBE2S expression level; assay type: cell-based
[30] = molecular target: T1, Signal transducer and activator of transcription 3; test: Inhibition of STAT3 phosphorylation in human MDA-MB-231 cells assessed as downregulation of TAGLN expression level; assay type: cell-based
[31] = molecular target: T1, Signal transducer and activator of transcription 3; test: Inhibition of STAT3 in human MDA-MB-231 cells assessed as upregulation of MCL1 level; assay type: cell-based
[32] = molecular target: T1, Signal transducer and activator of transcription 3; test: Inhibition of STAT3 in human MDA-MB-231 cells assessed as downregulation of CCNB1 level; assay type: cell-based
[33] = molecular target: T1, Signal transducer and activator of transcription 3; test: Inhibition of STAT3 in human MDA-MB-231 cells assessed as downregulation of SPRY1 level; assay type: cell-based

T1 sequence (P40763 whole entry): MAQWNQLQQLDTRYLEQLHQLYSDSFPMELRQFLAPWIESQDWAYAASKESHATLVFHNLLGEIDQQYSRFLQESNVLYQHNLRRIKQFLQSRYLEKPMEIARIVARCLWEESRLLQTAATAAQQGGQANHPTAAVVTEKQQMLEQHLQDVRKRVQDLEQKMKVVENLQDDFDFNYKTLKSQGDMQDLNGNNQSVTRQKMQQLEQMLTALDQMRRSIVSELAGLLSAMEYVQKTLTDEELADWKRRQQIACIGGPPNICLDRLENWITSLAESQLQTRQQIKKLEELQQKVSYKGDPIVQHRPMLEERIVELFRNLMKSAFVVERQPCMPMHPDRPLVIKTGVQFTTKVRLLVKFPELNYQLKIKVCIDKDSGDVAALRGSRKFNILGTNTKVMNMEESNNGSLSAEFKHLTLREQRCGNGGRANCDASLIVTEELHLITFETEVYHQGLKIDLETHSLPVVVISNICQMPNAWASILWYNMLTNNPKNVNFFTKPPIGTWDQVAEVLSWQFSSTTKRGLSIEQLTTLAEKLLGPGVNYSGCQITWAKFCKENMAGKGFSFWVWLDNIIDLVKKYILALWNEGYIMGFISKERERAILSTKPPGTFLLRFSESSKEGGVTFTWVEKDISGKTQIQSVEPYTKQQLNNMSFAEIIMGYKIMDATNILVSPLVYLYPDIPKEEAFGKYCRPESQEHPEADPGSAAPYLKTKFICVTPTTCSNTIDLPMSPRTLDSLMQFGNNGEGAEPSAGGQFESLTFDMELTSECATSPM
Chain of Epidermal growth factor receptor (Homo sapiens) (P00533 whole entry): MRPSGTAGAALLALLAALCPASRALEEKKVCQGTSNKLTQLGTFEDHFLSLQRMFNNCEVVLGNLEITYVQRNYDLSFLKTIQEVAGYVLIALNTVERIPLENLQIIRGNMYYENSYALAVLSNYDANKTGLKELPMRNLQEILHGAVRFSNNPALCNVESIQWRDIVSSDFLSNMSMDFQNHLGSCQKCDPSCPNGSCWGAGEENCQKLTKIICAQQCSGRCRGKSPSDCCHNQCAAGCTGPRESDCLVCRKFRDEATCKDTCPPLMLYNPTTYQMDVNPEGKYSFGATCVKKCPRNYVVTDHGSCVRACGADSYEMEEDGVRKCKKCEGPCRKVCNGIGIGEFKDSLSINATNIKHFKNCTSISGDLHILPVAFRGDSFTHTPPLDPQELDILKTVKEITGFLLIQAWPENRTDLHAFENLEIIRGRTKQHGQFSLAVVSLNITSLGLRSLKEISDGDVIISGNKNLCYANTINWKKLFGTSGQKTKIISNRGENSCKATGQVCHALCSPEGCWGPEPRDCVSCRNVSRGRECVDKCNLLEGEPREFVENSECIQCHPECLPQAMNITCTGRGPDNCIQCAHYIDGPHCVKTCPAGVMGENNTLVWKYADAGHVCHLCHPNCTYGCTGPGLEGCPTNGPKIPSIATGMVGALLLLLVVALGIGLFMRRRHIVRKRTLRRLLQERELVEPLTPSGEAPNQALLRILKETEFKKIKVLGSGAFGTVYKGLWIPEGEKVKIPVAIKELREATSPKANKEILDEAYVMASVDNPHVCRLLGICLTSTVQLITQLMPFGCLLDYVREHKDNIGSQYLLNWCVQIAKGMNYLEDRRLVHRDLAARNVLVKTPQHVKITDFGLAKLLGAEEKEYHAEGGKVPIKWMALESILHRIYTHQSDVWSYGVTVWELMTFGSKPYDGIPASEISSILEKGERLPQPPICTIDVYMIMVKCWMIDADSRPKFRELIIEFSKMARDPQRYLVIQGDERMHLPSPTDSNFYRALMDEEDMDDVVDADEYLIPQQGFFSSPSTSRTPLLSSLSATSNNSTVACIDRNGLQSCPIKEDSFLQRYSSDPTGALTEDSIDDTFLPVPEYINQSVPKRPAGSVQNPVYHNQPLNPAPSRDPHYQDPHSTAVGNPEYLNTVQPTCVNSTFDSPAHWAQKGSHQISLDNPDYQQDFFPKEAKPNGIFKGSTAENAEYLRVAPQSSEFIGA
Chain of Tyrosine-protein kinase JAK1 (Homo sapiens) (P23458 whole entry): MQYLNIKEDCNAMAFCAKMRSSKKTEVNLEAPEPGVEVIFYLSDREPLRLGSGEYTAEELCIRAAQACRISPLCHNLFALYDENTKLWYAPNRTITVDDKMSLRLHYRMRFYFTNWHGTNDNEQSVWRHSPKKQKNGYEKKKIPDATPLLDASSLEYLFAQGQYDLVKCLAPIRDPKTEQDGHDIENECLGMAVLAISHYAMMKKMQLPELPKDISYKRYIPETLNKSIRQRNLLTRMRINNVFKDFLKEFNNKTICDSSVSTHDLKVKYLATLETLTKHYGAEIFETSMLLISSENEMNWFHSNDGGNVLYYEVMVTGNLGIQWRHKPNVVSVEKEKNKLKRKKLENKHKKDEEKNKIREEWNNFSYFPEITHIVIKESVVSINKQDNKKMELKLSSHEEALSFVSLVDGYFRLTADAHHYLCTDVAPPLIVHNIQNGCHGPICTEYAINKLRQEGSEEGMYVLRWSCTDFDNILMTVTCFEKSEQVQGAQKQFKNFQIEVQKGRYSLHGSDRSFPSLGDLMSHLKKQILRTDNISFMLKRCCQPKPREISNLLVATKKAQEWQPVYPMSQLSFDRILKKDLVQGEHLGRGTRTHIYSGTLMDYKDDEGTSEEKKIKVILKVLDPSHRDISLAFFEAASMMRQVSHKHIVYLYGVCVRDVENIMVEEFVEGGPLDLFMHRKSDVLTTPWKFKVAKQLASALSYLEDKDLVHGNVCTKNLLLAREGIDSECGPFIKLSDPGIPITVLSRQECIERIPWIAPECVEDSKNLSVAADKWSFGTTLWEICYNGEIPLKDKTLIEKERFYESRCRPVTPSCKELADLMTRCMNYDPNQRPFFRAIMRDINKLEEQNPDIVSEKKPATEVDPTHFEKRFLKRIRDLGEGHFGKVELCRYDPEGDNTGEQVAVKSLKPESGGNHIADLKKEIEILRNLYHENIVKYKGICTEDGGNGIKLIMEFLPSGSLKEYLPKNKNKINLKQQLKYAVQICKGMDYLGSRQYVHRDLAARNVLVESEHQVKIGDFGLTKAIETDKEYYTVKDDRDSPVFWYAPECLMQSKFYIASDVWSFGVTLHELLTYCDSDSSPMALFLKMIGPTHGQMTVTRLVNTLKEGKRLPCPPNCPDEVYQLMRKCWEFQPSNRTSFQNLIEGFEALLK

With `COc1cccc(C(=O)Nc2sc3c(c2C#N)CCN(C(=O)Nc2ccccc2OC)C3)c1` the inhibition [1] was “Time-dependent-effect”, the inhibition [2] was “Dose-dependent-effect” and the inhibition [3] was “Dose-dependent-effect”. The Activity (MDA-MB-231 [4]) was “Dose-dependent-effect”, the Activity (MDA-MB-231 [5]) was “Dose-dependent-effect” and the Activity (MDA-MB-231 [6]) was “Dose-dependent-effect”. The Activity (BT-549 [7]) was “Dose-dependent-effect”, the Activity (BT-549 [8]) was “Dose-dependent-effect” and the Activity (BT-549 [9]) was “Dose-dependent-effect”. The Activity (BT-549 [10]) was “Active”, the inhibition [11] was “Active; Compound Showed Little Inhibitory Effect” and the inhibition [12] was “Active; Compound Showed Little Inhibitory Effect”. The Activity (MDA-MB-231 [13]) was “inactive”, the Activity (MDA-MB-231 [14]) was “inactive” and the Activity (BT-549 [15]) was “inactive”. The inhibition (BT-549 [16]) was “Dose-dependent-effect”, the inhibition (MDA-MB-231 [17]) was “inactive” and the inhibition (BT-549 [18]) was “inactive”. The inhibition (BT-549 [19]) was “Active”, the inhibition (BT-549 [20]) was “Dose-dependent-effect” and the Activity (MDA-MB-231 [21]) was “Active”. It also gave an Activity (MDA-MB-231 [22]) of 19.18%, a tumor volume (MDA-MB-231 [23]) of 656 mm³ and an inhibition in vivo at 10 mg/kg (MDA-MB-231 [24]) of 51.5%. The MRT [25] was 10 h, the Activity [26] was “Non-toxic” and the Activity [27] was “Non-toxic”. The Activity [28] was “Non-toxic”, the inhibition [29] was “Active” and the inhibition [30] was “Active”. The inhibition [31] was “Active”, the inhibition [32] was “Active” and the inhibition [33] was “Active”.
